According to patent US20090029992A1, “SUBSTITUTED PYRAZOLE COMPOUNDS” (priority 2007, published 2009):

What was measured:
recombinant Aurora A = target: T1, recombinant Aurora A (Homo sapiens, UniProt O14965); assay: Aurora A (Aurora 2) inhibition assay, Z'-Lyte kinase assay; format: biochemical; settings: ATP 10 μM, 1 h
T1 construct: purchased Upstate, Lake Placid, N.Y
T1 sequence (O14965 1-403): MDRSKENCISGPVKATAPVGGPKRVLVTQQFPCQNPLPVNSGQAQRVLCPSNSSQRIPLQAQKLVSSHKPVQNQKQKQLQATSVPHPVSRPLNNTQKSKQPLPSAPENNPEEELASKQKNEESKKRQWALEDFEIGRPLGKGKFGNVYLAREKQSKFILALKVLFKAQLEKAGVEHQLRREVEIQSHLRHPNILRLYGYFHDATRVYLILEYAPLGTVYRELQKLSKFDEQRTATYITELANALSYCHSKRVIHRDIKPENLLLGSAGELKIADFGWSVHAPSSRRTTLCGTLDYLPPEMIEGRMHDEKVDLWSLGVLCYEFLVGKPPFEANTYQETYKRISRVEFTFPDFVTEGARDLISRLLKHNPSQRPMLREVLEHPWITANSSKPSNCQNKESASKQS
In short: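 Z'-Lyte FRET assay: Aurora A (200-500 ng/mL final), Ser/Thr 1 peptide (2 μM) and ATP (10 μM) in 50 mM HEPES pH 7.5, 10 mM MgCl2, 5 mM EGTA, 0.05% Brij-35, 2 mM DTT, 1 h at room temperature. Coumarin/fluorescein emission ratio converted to percent phosphorylation; dose-response curves plotted.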

HCT116 cells = assay: Whole cell cytotoxicity assay, Sulforhodamine B; format: cell-based; settings: Homo sapiens, HCT-116, HCT116, 96 hours incubation, SRB; for IC50: read-out: IC50 values in this assay (HCT116 cell growth); for GI50: read-out: GI50 HCT116 cell growth
In short: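 HCT116 cells (500/well) in DMEM/10% FBS/2 mM glutamine were preincubated 24 h, then exposed to compound for 96 h at 37 °C, 5% CO2, in duplicate. Cells were fixed with TCA and stained with sulforhodamine B (A570). GI50, TGI and LC50 were derived relative to a time-zero plate and an untreated control.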

[1] = group with IC50 greater than 100 nM

| SMILES | IC50 (recombinant Aurora A; [1]) [nM] | IC50 (HCT116 cells) [nM] | GI50 (HCT116 cells) [nM] | IC50 (recombinant Aurora A) [nM] |
| --- | --- | --- | --- | --- |
| Cc1cc(Nc2cc(N3CCN(C)CC3)nc(-c3ccc([N+](=O)[O-])cc3)n2)n[nH]1 [Example 164, N-(5-methyl-1H-pyrazol-3-yl)-6-(4-methylpiperazin-1-yl)-2-(4-nitrophenyl)pyrimidin-4-amine] | ≤ 1000 | 1000 to 10000 |  |  |
| COc1ccc(-c2nc(Nc3cc(C)[nH]n3)cc(N(C)CCN(C)C)n2)cc1 [Compound 54, N^4-(2-(dimethylamino)ethyl)-2-(4-methoxyphenyl)-N^4-methyl-N^6-(5-methyl-1H-pyrazol-3-yl)pyrimidine-4,6-diamine] | ≤ 1000 |  | ≤ 1000 |  |
| Cc1cc(Nc2cc(N3CCN(C)CC3)nc(-c3cccc(OC(F)(F)F)c3)n2)n[nH]1 [Example 192, N-(5-methyl-1H-pyrazol-3-yl)-6-(4-methylpiperazin-1-yl)-2-(3-(trifluoromethoxy)phenyl)pyrimidin-4-amine] |  | 1000 to 10000 |  | ≤ 100 |
| Cc1cccc(-c2nc(Nc3cc(C)[nH]n3)cc(N(C)CCN(C)C)n2)c1 [Compound 52, N^4-(2-(dimethylamino)ethyl)-N^4-methyl-N^6-(5-methyl-1H-pyrazol-3-yl)-2-m-tolylpyrimidine-4,6-diamine] | ≤ 1000 |  | ≤ 1000 |  |
| COc1cccc(-c2nc(Nc3cc(C)[nH]n3)cc(NC3CCOCC3)n2)c1 [Compound 29, 2-(3-methoxyphenyl)-N^4-(5-methyl-1H-pyrazol-3-yl)-N^6-(tetrahydro-2H-pyran-4-yl)pyrimidine-4,6-diamine] |  | 1000 to 10000 |  | ≤ 100 |
| Cc1cc(Nc2cc(N3CCN(C)CC3)nc(-c3cccc(N(C)C)c3)n2)n[nH]1 [Compound 86, 2-(3-(dimethylamino)phenyl)-N-(5-methyl-1H-pyrazol-3-yl)-b-(4-methylpiperazin-1-yl)pyrimidin-4-amine] |  |  | ≤ 1000 | ≤ 100 |
| Cc1cc(Nc2cc(NC3CCOCC3)nc(-c3cc4ccccc4n3C)n2)n[nH]1 [Compound 7, N^4-(tetrahydro-2H-pyran-4-yl)-2-(1-methyl-1H-indol-2-yl)-N^6-(5-methyl-1H-pyrazol-3-yl)pyrimidine-4,6-diamine] | ≤ 1000 | 1000 to 10000 |  |  |
| Cc1cc(Nc2cc(N3CCN(C)CC3)nc(-c3ccccc3Cl)n2)n[nH]1 [Compound 37, 2-(2-chlorophenyl)-N-(5-methyl-1H-pyrazol-3-yl)-6-(4-methylpiperazin-1-yl)pyrimidin-4-amine] | ≤ 1000 | 1000 to 10000 |  |  |
| Cc1cc(Nc2cc(N3CCN(C)CC3)nc(-c3cccc4ccccc34)n2)n[nH]1 [Example 134, N-(5-methyl-1H-pyrazol-3-yl)-6-(4-methylpiperazin-1-yl)-2-(naphthalen-1-yl)pyrimidin-4-amine] |  | 1000 to 10000 |  | ≤ 100 |
| Cc1cc(Nc2cc(N(C)CCN(C)C)nc(-c3cccc4ccoc34)n2)n[nH]1 [Example 205, 2-(benzofuran-7-yl)-N^4-(2-(dimethylamino)ethyl)-N^4-methyl-N^6-(5-methyl-1H-pyrazol-3-yl)pyrimidine-4,6-diamine] | ≤ 1000 | 1000 to 10000 |  |  |
| Cc1ccc(C)c(-c2nc(Nc3cc(C)[nH]n3)cc(N3CCN(C)CC3)n2)c1 [Example 201, 2-(2,5-dimethylphenyl)-N-(5-methyl-1H-pyrazol-3-yl)-6-(4-methylpiperazin-1-yl)pyrimidin-4-amine] | ≤ 1000 | 1000 to 10000 |  |  |
| Cc1cc(Nc2cc(N3CCN(C)CC3)nc(-c3ccc(N(C)C)cc3)n2)n[nH]1 [Compound 85, 2-(4-(dimethylamino)prenyl)-N-(b-methyl-1H-pyrazol-3-yl)-6-(4-methylpiperazin-1-yl)pyrimidin-4-amine] |  |  | ≤ 1000 | ≤ 100 |
| Cc1cc(Nc2cc(N3CCC(O)CC3)nc(-c3cc4ccccc4n3C)n2)n[nH]1 [Compound 3, 1-(6-(5-methyl-1H-pyrazol-3-ylamino)-2-(1-methyl-1H-indol-2-yl)pyrimidin-4-yl)piperidin-4-ol] |  | 1000 to 10000 |  | ≤ 100 |
| Cc1cc(Nc2cc(N(C)CCN(C)C)nc(-c3cc4ccccc4n3C)n2)n[nH]1 [Compound 4, N^4-(2-(dimethylamino)ethyl)-N^4-methyl-2-(1-methyl-1H-indol-2-yl)-N^6-(5-methyl-1H-pyrazol-3-yl)pyrimidine-4,6-diamine] | ≤ 1000 |  | ≤ 1000 |  |
| Cc1ccc(F)c(-c2nc(Nc3cc(C)[nH]n3)cc(N3CCN(C)CC3)n2)c1 [Example 193, 2-(2-fluoro-5-methylphenyl)-N-(5-methyl-1H-pyrazol-3-yl)-6-(4-methylpiperazin-1-yl)pyrimidin-4-amine] |  | 1000 to 10000 |  | ≤ 100 |
| Cc1cc(Nc2cc(N3CCN(C)CC3)nc(-c3cccc(C)c3C)n2)n[nH]1 [Example 179, 2-(2,3-dimethylphenyl)-N-(5-methyl-1H-pyrazol-3-yl)-6-(4-methylpiperazin-1-yl)pyrimidin-4-amine] | ≤ 1000 |  | ≤ 1000 |  |
| Cc1cc(Nc2cc(NCCN3CCN(C)CC3)nc(-c3ccccc3)n2)n[nH]1 [Compound 13, N^4-(5-methyl-1H-pyrazol-3-yl)-N^6-(2-(4-methylpiperazin-1-yl)ethyl)-2-phenylpyrimidine-4,6-diamine] | ≤ 1000 |  | ≤ 1000 |  |
| COCCNc1cc(Nc2cc(C)[nH]n2)nc(-c2ccccc2)n1 [Compound 10, N^4-(2-methoxyethyl)-N^6-(5-methyl-1H-pyrazol-3-yl)-2-phenylpyrimidine-4,6-diamine] |  | 1000 to 10000 |  | ≤ 100 |
| Cc1cc(Nc2cc(N3CCN(C)CC3)nc(-c3cc(F)ccc3C)n2)n[nH]1 [Example 196, 2-(5-fluoro-2-methylphenyl)-N-(5-methyl-1H-pyrazol-3-yl)-6-(4-methylpiperazin-1-yl)pyrimidin-4-amine] | ≤ 1000 |  | ≤ 1000 |  |
| Cc1cc(Nc2cc(N(C)CCN(C)C)nc(-c3cccc(Cl)c3)n2)n[nH]1 [Compound 49, 2-(3-chlorophenyl)-N^4-(2-(dimethylamino)ethyl)-N^4-methyl-N^6-(5-methyl-1H-pyrazol-3-yl)pyrimidine-4,6-diamine] | ≤ 1000 |  | ≤ 1000 |  |
| Cc1cc(Nc2cc(NC3CCOCC3)nc(-c3ccc(F)cc3)n2)n[nH]1 [Compound 19, 2-(4-fluorophenyl)-N^4-(5-methyl-1H-pyrazol-3-yl)-N^6-(tetrahydro-2H-pyran-4-yl)pyrimidine-4,6-diamine] | ≤ 1000 | 1000 to 10000 |  |  |
| COCCN(C)c1cc(Nc2cc(C)[nH]n2)nc(-c2ccc3c(c2)OCO3)n1 [Example 153, 2-(benzo[d][1,3]dioxol-5-yl)-N^4-(2-methoxyethyl)-N^4-methyl-N^6-(5-methyl-1H-pyrazol-3-yl)pyrimidine-4,6-diamine] |  | 1000 to 10000 |  | ≤ 100 |
| Cc1cc(Nc2cc(NC3CCOCC3)nc(-c3cccc4ccoc34)n2)n[nH]1 [Example 204, 2-(benzofuran-7-yl)-N^4-(5-methyl-1H-pyrazol-3-yl)-N^6-(tetrahydro-2H-pyran-4-yl)pyrimidine-4,6-diamine] | ≤ 1000 | 1000 to 10000 |  |  |
| Cc1cc(Nc2cc(N3CCN(C)CC3)nc(-c3cccc(F)c3F)n2)n[nH]1 [Example 200] | ≤ 1000 |  | ≤ 1000 |  |
| COc1ccc(-c2nc(Nc3cc(C)[nH]n3)cc(N3CCN(C)CC3)n2)cc1 [Compound 41, 2-(4-methoxyphenyl)-N-(5-methyl-1H-pyrazol-3-yl)-6-(4-methylpiperazin-1-yl)pyrimidin-4-amine] |  |  | ≤ 1000 | ≤ 100 |
| Cc1cc(Nc2cc(N3CCN(C)CC3)nc(-c3ccc4c(c3)OC(F)(F)O4)n2)n[nH]1 [Example 178, 2-(2,2-difluorobezo[d][1,3]dioxol-5-yl)-N-(5-methyl-1H-pyrazol-3-yl)-6-(4-methylpiperazin-1-yl)pyrimidin-4-amine] | ≤ 1000 |  | ≤ 1000 |  |
| Cc1cc(Nc2cc(NC3CCOCC3)nc(-c3ccccc3)n2)n[nH]1 [Compound 12, N^4-(tetrahydro-2H-pyran-4-yl)-N^6-(5-methyl-1H-pyrazol-3-yl)-2-phenylpyrimidine-4,6-diamine] |  |  | ≤ 1000 | ≤ 100 |
| COc1ccc(F)c(-c2nc(Nc3cc(C)[nH]n3)cc(N3CCN(C)CC3)n2)c1 [Example 197, 2-(2-fluoro-5-methoxyphenyl)-N-(5-methyl-1H-pyrazol-3-yl)-6-(4-methylpiperazin-1-yl)pyrimidin-4-amine] |  |  | ≤ 1000 | ≤ 100 |
| Cc1cc(Nc2cc(N(C)CCN(C)C)nc(-c3ccccc3)n2)n[nH]1 [Compound 9, N^4-(2-(dimethylamino)ethyl)-N^4-methyl-N^6-(5-methyl-1H-pyrazol-3-yl)-2-phenylpyrimidine-4,6-diamine] | ≤ 1000 |  | ≤ 1000 |  |
